Experimental findings from patent US10472336B2, “Modulators of indoleamine 2,3-dioxygenase” (GlaxoSmithKline Intellectual Property (No.2) Limited, priority 2015, dated 2019) are described below.

Structures can show the parent of a compound that is named as a salt.

Assay [1] has as its target T1, indoleamine 2, 3-dioxygenase (IDO1) (Homo sapiens, UniProt P14902). Put plainly: PBMC IDOi assay (kynurenine detection by mass spectrometry). The class given is cell-based. To be noted: IFN-γ and LPS stimulated human PBMC, 2 days. How it is done:
Compounds of the present invention were tested via high-throughput cellular assays utilizing detection of kynurenine via mass spectrometry and cytotoxicity as end-points. For the mass spectrometry and cytotoxicity assays, human peripheral blood mononuclear cells (PBMC) (PB003F; AllCells®, Alameda, Calif.) were stimulated with human interferon-γ (IFN-γ) (Sigma-Aldrich Corporation, St. Louis, Mo.) and lipopolysaccharide from Salmonella minnesota (LPS) (Invivogen, San Diego, Calif.) to induce the expression of indoleamine 2, 3-dioxygenase (IDO1). Compounds with IDO1 inhibitory properties decreased the amount of kynurenine produced by the cells via the tryptophan catabolic pathway. Cellular toxicity due to the effect of compound treatment was measured using CellTiter-Glo® reagent (CTG) (Promega Corporation, Madison, Wis.), which is based on luminescent detection of ATP, an indicator of metabolically active cells.
In preparation for the assays, test compounds were serially diluted 3-fold in DMSO from a typical top concentration of 5 mM and plated at 0.5 μL in 384-well, polystyrene, clear bottom, tissue culture treated plates with lids (Greiner Bio-One, Kremsmünster, Austria) to generate 11-point dose response curves. Low control wells (0% kynurenine or 100% cytotoxicity) contained either 0.5 μL of DMSO in the presence of unstimulated (−IFN-γ/−LPS) PBMCs for the mass spectrometry assay or 0.5 μL of DMSO in the absence of cells for the cytotoxicity assay, and high control wells (100% kynurenine or 0% cytotoxicity) contained 0.5 μL of DMSO in the presence of stimulated (+IFN-γ/+LPS) PBMCs for both the mass spectrometry and cytotoxicity assays.
Frozen stocks of PBMCs were washed and recovered in RPMI 1640 medium (Thermo Fisher Scientific, Inc., Waltham, Mass.) supplemented with 10% v/v heat-inactivated fetal bovine serum (FBS) (Thermo Fisher Scientific, Inc., Waltham, Mass.), and 1× penicillin-streptomycin antibiotic solution (Thermo Fisher Scientific, Inc., Waltham, Mass.). The cells were diluted to 1,000,000 cells/mL in the supplemented RPMI 1640 medium. 50 μL of either the cell suspension, for the mass spectrometry assay, or medium alone, for the cytotoxicity assay, were added to the low control wells, on the previously prepared 384-well compound plates, resulting in 50,000 cells/well or 0 cells/well respectively. IFN-γ and LPS were added to the remaining cell suspension at final concentrations of 100 ng/ml and 50 ng/ml respectively, and 50 μL of the stimulated cells were added to all remaining wells on the 384-well compound plates. The plates, with lids, were then placed in a 37° C., 5% CO2 humidified incubator for 2 days.
Following incubation, the 384-well plates were removed from the incubator and allowed to equilibrate to room temperature for 30 minutes. For the cytotoxicity assay, CellTiter-Glo® was prepared according to the manufacturer's instructions, and 40 μL were added to each plate well. After a twenty minute incubation at room temperature, luminescence was read on an EnVision® Multilabel Reader (PerkinElmer Inc., Waltham, Mass.). For the mass spectrometry assay, 10 μL of supernatant from each well of the compound-treated plates were added to 40 μL of acetonitrile, containing 10 μM of an internal standard for normalization, in 384-well, polypropylene, V-bottom plates (Greiner Bio-One, Kremsmünster, Austria) to extract the organic analytes. Following centrifugation at 2000 rpm for 10 minutes, 10 μL from each well of the acetonitrile extraction plates were added to 90 μL of sterile, distilled H2O in 384-well, polypropylene, V-bottom plates for analysis of kynurenine and the internal standard on the RapidFire 300 (Agilent Technologies, Santa Clara, Calif.) and 4000 QTRAP MS (SCIEX, Framingham, Mass.). MS data were integrated using Agilent Technologies' RapidFire Integrator software, and data were normalized for analysis as a ratio of kynurenine to the internal standard. […]

Assay [2] addresses T1, indoleamine 2, 3-dioxygenase (IDO1). The assay is described as follows: HeLa IDOi assay (kynurenine detection by mass spectrometry). It is filed as cell-based. On the set-up: human epithelial HeLa cells (CCL-2; host or cells: HeLa cells stimulated with human IFN-γ. The note with it: IFN-γ stimulated human epithelial HeLa cells, 2 days. In a few lines:
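HeLa cells (5,000/well) stimulated with 10 nM IFN-γ to induce IDO1 were exposed to 11-point compound dilutions for 2 days at 37 °C. Supernatant kynurenine was measured by RapidFire MS as a ratio to internal standard; cytotoxicity was read with CellTiter-Glo. Four-parameter fits gave pIC50 and pCC50.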

T1 sequence (P14902 whole entry): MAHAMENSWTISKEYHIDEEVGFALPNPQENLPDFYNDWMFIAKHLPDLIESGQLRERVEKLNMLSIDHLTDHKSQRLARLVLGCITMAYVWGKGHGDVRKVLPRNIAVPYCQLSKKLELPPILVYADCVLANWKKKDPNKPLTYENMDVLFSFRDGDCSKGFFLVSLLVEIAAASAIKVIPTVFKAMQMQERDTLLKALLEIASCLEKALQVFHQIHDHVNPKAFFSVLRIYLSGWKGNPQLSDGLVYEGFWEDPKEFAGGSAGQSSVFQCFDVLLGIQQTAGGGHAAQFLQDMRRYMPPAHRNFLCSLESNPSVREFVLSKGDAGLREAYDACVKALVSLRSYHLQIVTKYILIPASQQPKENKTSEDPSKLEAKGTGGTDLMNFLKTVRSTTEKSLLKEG

On to `CC(C)CN(c1ccc([C@H](C)CC(=O)O)cc1Nc1nnc(C2CC2)[nH]1)C1CCCCC1` [Example 50, (R)-3-(4-(cyclohexyl(isobutyl)amino)-3-((5-cyclopropyl-4H-1,2,4-triazol-3-yl)amino)phenyl)butanoic acid], for which the results for the concentration for a half-maximal effect (EC50) in assay [1] and in assay [2] were 2.51 nM and 10 nM, respectively.

`CC(C)CN(CC(C)C)c1ccc([C@@H](C)CC(=O)O)cc1Nc1nc(C(F)(F)F)ns1` [Example 53, (S)-3-(4-(diisobutylamino)-3-((3-(trifluoromethyl)-1,2,4-thiadiazol-5-yl)amino)phenyl)butanoic acid]: the EC50 in assay [1] is 3.16 nM; in assay [2], 10 nM.

In the case of `CC(C)CN(CC(C)C)c1ccc([C@H](C)CC(=O)O)cc1Nc1nc(C(F)(F)F)ns1` [Example 54, (R)-3-(4-(diisobutylamino)-3-((3-(trifluoromethyl)-1,2,4-thiadiazol-5-yl)amino)phenyl)butanoic acid], the concentration for a half-maximal effect (EC50) is 2 nM in assay [1] and 6.31 nM in assay [2].

Take `CC(C)CN(CC(C)C)c1ccc(C(C)CC(=O)O)cc1Nc1nnc(C(F)(F)F)s1` (stereo not drawn) [Example 55, 3-(4-(diisobutylamino)-3-((5-(trifluoromethyl)-1,3,4-thiadiazol-2-yl)amino)phenyl)butanoic acid, 2,2,2-trifluoroacetic acid salt]: the results for the EC50 in assay [1] and in assay [2] were 0.631 nM and 3.16 nM, respectively.

As for `CC(C)CN(c1ccc([C@H](C)CC(=O)O)cc1Nc1nnc(C2CC2)s1)C1CCCCC1` [Example 56, (R)-3-(4-(cyclohexyl(isobutyl)amino)-3-((5-cyclopropyl-1,3,4-thiadiazol-2-yl)amino)phenyl)butanoic acid], the results for the EC50 in assay [1] and in assay [2] were 0.251 nM and 3.16 nM, respectively.

Take `CC(C)CN(c1ccc([C@@H](C)CC(=O)O)cc1Nc1nnc(C2CC2)s1)C1CCCCC1` [Example 57, (S)-3-(4-(cyclohexyl(isobutyl)amino)-3-((5-cyclopropyl-1,3,4-thiadiazol-2-yl)amino)phenyl)butanoic acid]: the EC50 in assay [1] was 0.631 nM; in assay [2], 2 nM.

Take `CC(C)CN(CC(C)C)c1ccc(C(C)CC(=O)O)cc1Nc1cnccn1` (stereo not drawn) [Example 58, 3-(4-(diisobutylamino)-3-(pyrazin-2-ylamino)phenyl)butanoic acid]: the half-maximal effective concentration (EC50) was 158 nM in assay [1] and 316 nM in assay [2].

In the case of `CC(C)CN(c1ccc(C(C)CC(=O)O)cc1NCc1ccco1)C1CCCCC1` (stereo not drawn) [Example 59, 3-(4-(cyclohexyl(isobutyl)amino)-3-((furan-2-ylmethyl)amino)phenyl)butanoic acid], the EC50 is 200 nM in assay [1] and 501 nM in assay [2].

Consider `Cc1nc(C(F)(F)F)sc1Nc1cc(C(C)CC(=O)O)ccc1N(CC(C)C)CC(C)C` (stereo not drawn) [Example 60, 3-(4-(diisobutylamino)-3-((4-methyl-2-(trifluoromethyl)thiazol-5-yl)amino)phenyl)butanoic acid], for which the EC50 is 398 nM in assay [1] and 501 nM in assay [2].

`CC(C)CN(CC(C)C)c1ccc(C(C)CC(=O)O)cc1Nc1cnc(C2CC2)s1` (stereo not drawn) [Example 61, 3-(3-((2-cyclopropylthiazol-5-yl)amino)-4-(diisobutylamino)phenyl)butanoic acid]: the concentration for a half-maximal effect (EC50) in assay [1] was 31.6 nM; in assay [2], 63.1 nM.

Regarding `CC(C)CN(c1ccc([C@@H](C)CC(=O)O)cc1Nc1ccnc(Cl)n1)C1CCCCC1` [Example 62, (S)-3-(3-((2-chloropyrimidin-4-yl)amino)-4-(cyclohexyl(isobutyl)amino)phenyl)butanoic acid], the EC50 is 2.51 nM in assay [1] and 3.98 nM in assay [2].

Take `CC(C)CN(c1ccc([C@H](C)CC(=O)O)cc1Nc1ccnc(Cl)n1)C1CCCCC1` [Example 63, (R)-3-(3-((2-chloropyrimidin-4-yl)amino)-4-(cyclohexyl(isobutyl)amino)phenyl)butanoic acid]: the EC50 was 20 nM in assay [1] and 31.6 nM in assay [2].

For `CC(C)CN(c1ccc(C(CC(=O)O)C(F)(F)F)cc1Nc1nc(Cl)ns1)C1CCCCC1` (stereo not drawn) [Example 71, 3-(3-((3-Chloro-1,2,4-thiadiazol-5-yl)amino)-4-(cyclohexyl(isobutyl)amino)phenyl)-4,4,4-trifluorobutanoic Acid], the concentration for a half-maximal effect (EC50) in assay [1] is 0.794 nM; in assay [2], 6.31 nM.

In the case of `CC(C)CN(c1ccc(C(C)CC(=O)O)cc1NC1=N[C@H](C(F)(F)F)CS1)C1CCCCC1` (stereo partly drawn) [Example 75, 3-(4-(Cyclohexyl(isobutyl)amino)-3-(((R)-4-(trifluoromethyl)-4,5-dihydrothiazol-2-yl)amino)phenyl)butanoic Acid], the EC50 is 63.1 nM in assay [1] and 31.6 nM in assay [2].

As for `CC(C)CN(c1ccc(C(C)CC(=O)O)cc1NC1=N[C@@H](C(F)(F)F)CO1)C1CCCCC1` (stereo partly drawn) [Example 76, 3-(4-(Cyclohexyl(isobutyl)amino)-3-(((R)-4-(trifluoromethyl)-4,5-dihydrooxazol-2-yl)amino)phenyl)butanoic acid], the concentration for a half-maximal effect (EC50) was 20 nM in assay [1] and 31.6 nM in assay [2].
